Laboratory results reported in patent US5023359A, “Use of organic salts of copper for the treatment of honeybee's parasitic diseases” (priority 1990, dated 1991).
Entries after “also recorded” stand apart in the source; their conditions may differ.

How the values were obtained:
honeybees [1] = assay: Appetency of the honeybees (consumption of syrup in small cases, batches of 100 honeybees); type: in vivo; conditions: for Appetency, absolute value / Appetency, 1/1 COPPER GLUCONATE: with pollen, mean ± SD; for Appetency, absolute value: pure sugar syrup 21.13±6.31; for Appetency, 1/1 COPPER GLUCONATE: 1/1 with copper gluconate; for Appetency, RELATIVE VALUES / PURE SUGAR SYRUP, AVERAGE / Appetency, RELATIVE VALUES / PURE SUGAR SYRUP, TEST 1 / Appetency, RELATIVE VALUES / PURE SUGAR SYRUP, TEST 2: relative to pure sugar syrup; for Appetency, RELATIVE VALUES / PURE SUGAR SYRUP, AVERAGE: average of tests; for Appetency, RELATIVE VALUES / PURE SUGAR SYRUP, TEST 1: test 1 (first concentration tested); for Appetency, RELATIVE VALUES / PURE SUGAR SYRUP, TEST 2: test 2 (second concentration tested)
Excerpt: It should be noted that the pollen has been made available to the honeybees in a sufficient amount inside the small cases, without being admixed to the syrup. The determinations have been performed every day and the length of the vertical bars of the diagrams hereabove, are proportional to the deviation of the observed results. They evidence a clearly higher […] case of the utilization of the compounds of this invention. […] The results of these tests are gathered in Table 7 hereinafter in which the figures correspond to measures performed on honeybees placed in small cases, having pollen to their disposal, and are means expressed in microliters per honeybee and per day for N countings.

honeybees [2] = assay: Phagoinhibitive action on food intake by the honeybees (small cases, 100 honeybees, syrup with copper sulphate); type: in vivo; conditions: FIG. 1; absorption in ml/bee/day vs g/l copper sulphate
Excerpt: The obtained results as shown under FIG. 1 have been obtained from studies carried out in the laboratory, on batches of 100 honeybees each, located in small coops called small cases (logettes) in the absence of queen bees. The feeding made available to the honeybees, is placed in a graduated tube which allows the measurement of the ingested amount every day. The experiments have been carried out simultaneously with various small cases each receiving for the feeding of the honeybees a syrup of sucrose at 2 kg for 1 l water (i.e. 66% weight/weight) containing variable amounts of copper sulphate.

Solubility in water = conditions: for water solubility: 20° C.
honeybees [3] = assay: Biological activity / metabolism of honeybees and productivity of hives; conditions: in vivo
honeybees [4] = assay: Lethality / noxiousness for the honeybees; conditions: 6.75 l of syrup per hive, 0.02 to 0.5 g/l copper gluconate
Varroa jacobsoni = assay: Action against Varroa jacobsoni in full-size hives: counting of fallen/remaining Varroas, efficiency; type: in vivo; conditions: for FALL OF THE VARROAS: 4 hives, mean ± SD
Experimental: Each hive was provided at its lower part with a plastic plate coated with a consistent grease. Each day at the same time, the plate was discarded and the counting of the Varroas fallen on the plate, was carried out. A grid surmounting this plate avoid that the honeybees may spontaneously proceed with the discharge of the Varroas.
The results shown in FIG. 2 have been obtained following experiments performed at full size in hives containing from 20,000 to 50,000 honeybees.
2°--The efficiency of the treatment has been defined as the ratio between the number of Varroas subsiding in the various colonies of an apiary after treatment by solutions at various concentrations, and the number of Varroas contained in the control hives, these two figures have been measured after treatment with Amitraze.
This experiment has been carried out in a series of 14 hives and the result thereof are compiled in the Table 3 figuring herein after.
These experiments allow to obtain the results of Table 3 above, and were carried out in full size on a set of 14 hives.
Measurements of the falls of the Varroas have been performed, at first, every day then every three days starting from the initiation of the delivery of the syrup.
To this end, a plate coated with a consistent grease was arranged at the bottom of each hive and protected with a grid as above-mentioned, in order to allow the counting of the Varroas. The fall begins to be significative in relation to the control hives which have only been given pure sugar syrup, after absorption by the honeybees of 3 liters of syrup per hive in 10 days.
The counting of the remaining Varroas has been performed 2 days after the last delivery of syrup while submitting each hive to a treatment of shock by means of an acaricide (in these circumstances the marketed composition sold under the Tread Name AMITRAZE).
The averages and the standard deviations have been calculated for the number of performed measures corresponding to the number of hives, this figure being mentioned between hyphens following the figures of the third column in Table 3.

[5] = test system: glycosemia in the honeybees; assay: Glycosemia / glucose in the hemolymph of honeybees after ingestion; type: in vivo; conditions: FIGS. 8A-8D, 9A-9B, 10A
Excerpt: (§1) These diagrams evidence the action of copper glyconate on the glycosemia of the honeybees after ingestion of increasing doses of this product.
(§2) FIG. 9A corresponds to experiments performed without administration of an inhibitor of trehalases
(§3) FIG. 9B is with administration of such an inhibitor.
(§4) FIG. 10A further evidences the variation of the glucosemia in the honeybees following the ingestion of copper glyconate.

Trehalases = assay: Activity of trehalases in the hemolymph of honeybees after ingestion; type: in vivo; conditions: FIGS. 8A-8D, 9A-9B, 10B, listed as copper glyconate
Excerpt: as §1, §2, §3, §4

honeybees [6] = conditions: in vivo
Experimental: The determination of the amounts of copper inside the bodies of the honeybees is performed through atomic absorption on samples of 5 honeybees after crushing and centrifuging them, and analysis of the supernatant liquid.

honeybees [7] = assay: Acceptance of treated syrup by honeybees in full-size hives; type: in vivo; conditions: syrup of sucrose 66% w/w with copper gluconate

Compound	Appetency, absolute value (honeybees [1]; 0,44 M.M.)	Appetency, absolute value (honeybees [1]; 1,1 M.M.)	Appetency, 1/1 COPPER GLUCONATE (honeybees [1])	Appetency, RELATIVE VALUES / PURE SUGAR SYRUP, AVERAGE (honeybees [1])	Appetency, RELATIVE VALUES / PURE SUGAR SYRUP, TEST 1 (honeybees [1])	Appetency, RELATIVE VALUES / PURE SUGAR SYRUP, TEST 2 (honeybees [1])	supplemental effects: production of honey, activity of cleaning the hives (honeybees [3])	other results
NCC(=O)[O-].NCC(=O)[O-].[Cu+2] [Copper glycinate]	16,65 ± 5,01 microliters per honeybee and p	15,5 ± 5,03 microliters per honeybee and p	14,30 ± 3,52 microliters per honeybee and p	75,85%	78,0%	73,7%		
CC(O)C(=O)[O-].CC(O)C(=O)[O-].[Cu+2] (stereo not drawn) [Copper lactate]	15,30 ± 4,24 microliters per honeybee and p	15,60 ± 4,34 microliters per honeybee and p	10,95 ± 3,54 microliters per honeybee and p	73,6%	72,4%	73,8%		
O=S(=O)([O-])[O-].[Cu+2] [copper sulphate]								phagoinhibitive (anorectic) action on food intake (honeybees [2]): phagoinhibitive action
COPPER CITRATE	14,71 ± 4,25 microliters per honeybee and p	12,67 ± 3,96 microliters per honeybee and p	12,67 ± 3,96 microliters per honeybee and p	64,75%	69,5%	60,0%		
Copper 1-aspartate				55,1%	76,5%	69,4%		Appetency, absolute value (honeybees [1]; 0,61 M.M.): 17,96 ± 7,20 microliters per honeybee and p; Appetency, absolute value (honeybees [1]; 1,54 M.M.): 14,68 ± 5,40 microliters per honeybee and p; Appetency, absolute value (honeybees [1]; 2,4 M.M.): 12,49 ± 5,11 microliters per honeybee and p
Copper 1-glutamate	16,18 ± 4,66 microliters per honeybee and p	16,64 ± 7,97 microliters per honeybee and p	11,56 ± 6,32 microliters per honeybee and p	77,6%	76,5%	78,7%		
Copper Asparaginate	15,48 ± 4,32 microliters per honeybee and p	11,97 ± 3,34 microliters per honeybee and p	12,21 ± 4,29 microliters per honeybee and p	65,0%	73,2%	56,3%		water solubility (Solubility in water): 0,5%
Copper glucoheptonate	15,68 ± 2,35 microliters per honeybee and p	14,58 ± 3,16 microliters per honeybee and p	14,90 ± 3,64 microliters per honeybee and p	71,6%	74,2%	69,0%	A similar effect has been shown	water solubility (in words) (Solubility in water): very soluble
Copper gluconate	22,3 ± 2,5 microliters per honeybee and p	21,2 ± 2,6 microliters per honeybee and p					increases the production of honey	percentage of lethality in the honeybees compared to controls (honeybees [4]): no increase in the percentage of lethality in the honeybees; FALL OF THE VARROAS (Varroa jacobsoni; 0,2 g/l copper gluconate in syrup): 165,5 ± 84,1; FALL OF THE VARROAS (Varroa jacobsoni; 0,5 g/l copper gluconate in syrup): 207 ± 172; FALL OF THE VARROAS (Varroa jacobsoni; 1 g/l copper gluconate in syrup): 109 ± 141; destroying of the Varroas (in words) (Varroa jacobsoni; in vivo): efficient even at low doses; syrup absorbed per hive when fall of Varroas begins to be significative vs control hives (Varroa jacobsoni; per hive, in 10 days): 3 L; glycosemia / concentration of glucose in the hemolymph of the honeybees [5]: a momentaneous and significative increase of the glycosemia in the honeybees; glycosemia / concentration of glucose in the hemolymph of the honeybees ([5]; listed as copper glyconate): increase in the concentration of glucose; activity / concentration of trehalases in the hemolymph (Trehalases): increase of the activity of the Trehalases; also recorded: increase in the concentration of glucose and trehalases in the hemolymph; appetency of the honeybees (in words) (honeybees [1]; sucrose syrup 66% w/w, FIGS. 7A-7C, comparison with copper sulphate): great appentency of the honeybees; storage of copper inside the body of the honeybees (honeybees [6]): does not incur any storage of copper inside the body of the honeybees; supplemental effects: production of honey, activity of cleaning the hives (honeybees [3]; listed as copper glyconate): increase in the activity of cleaning the hives; ingestion of the syrup by the honeybees in hives (honeybees [7]): The whole amount of syrup made available to the honeybees was absorbed every day; also recorded: totally ingested
Copper gluconate/glucoheptonate							A similar effect has been shown	
Copper gluconate/glutamate							A similar effect has been shown	
Copper isoleucinate				71,55%	78,9%	64,2%		Appetency, absolute value (honeybees [1]; 0,61 M.M.): 16,69 ± 5,03 microliters per honeybee and p; Appetency, absolute value (honeybees [1]; 1,54 M.M.): 13,57 ± 5,77 microliters per honeybee and p; Appetency, absolute value (honeybees [1]; 2,4 M.M.): 13,79 ± 5,73 microliters per honeybee and p; water solubility (Solubility in water): 1%
Copper leucinate	15,83 ± 4,53 microliters per honeybee and p	13,02 ± 2,42 microliters per honeybee and p	13,02 ± 2,42 microliters per honeybee and p	67,8%	74,0%	61,6%		water solubility (Solubility in water): 1%
